# Laboratory results: ChEMBL document CHEMBL5120920, “A Mitochondria-Targeted Phenylbutyric Acid Prodrug Confers Drastically Improved Anticancer Activities” (J Med Chem, 2022)
# Active and inactive are the calls of the source. No cut-off for these calls is given here.
# Columns and labels:
# [1] = Toxicity in BALB/c mouse at 200 mg/kg, iv administered for 7 days; assay type: organism-based; details: in vivo, 168 h, time 7 day
# [2] = system: A-375; experiment: Induction of mitochondrial membrane hyperpolarization in human A-375 cells assessed as JC-1 level at 2.5 to 10 uM incubated for 4 hrs by JC-1 staining based flow cytometry analysis relative to control; assay type: functional; details: dose 2.5-10 µM
# [3] = system: A-375; experiment: Antitumor activity against human A-375 cells xenografted in nude mouse assessed as decrease in bcl-2 expression at 40 mg/kg, ip measured once every two days for 14 days by immunohistochemistry assay; assay type: functional, organism-based; details: time 14.0 day
# [4] = system: A-375; experiment: Inhibition of colony formation in human A-375 cells preincubated for 72 hrs followed by drug free medium addition for 10 to 14 days by crystal violet staining based analysis; assay type: functional, cell-based; details: dose 0.5-1 µM, DDE = dose-dependent effect
# [5] = system: A-375; experiment: Induction of cell cycle arrest in human A-375 cells assessed as accumulation at G1 phase at 7.5 uM incubated for 24 hrs by PI staining based flow cytometry analysis (reference value: 68.07 %); assay type: functional
# [6] = system: HUVEC; experiment: Induction of mitochondrial membrane hyperpolarization in HUVEC assessed as JC-1 level at 2.5 to 10 uM incubated for 4 hrs by JC-1 staining based flow cytometry analysis relative to control; assay type: functional, Homo sapiens; details: dose 2.5-10 µM
# [7] = Stability of the compound assessed as Carboxylesterase (unknown origin) mediated compound hydrolysis measured upto 150 mins by RP-HPLC-UV analysis; assay type: ADME; details: human, 2.5 h
# [8] = Metabolic stability in Sprague-Dawley rat plasma assessed as elimination half life by LC-MS/MS analysis; assay type: ADME, cell-free; details: read-out: beta t1/2
# [9] = system: A-375; experiment: Antitumor activity against human A-375 cells implanted in BALB/c mouse assessed as reduction in tumor weight at 40 mg/kg, ip measured once every two days for 14 days; assay type: functional, organism-based; details: time 14.0 day
# [10] = system: A-375; experiment: Induction of apoptosis in human A-375 cells assessed as apoptotic cells at 2.5 uM measured after 48 hrs by Annexin V FITC/PI staining based flow cytometry analysis relative to control; assay type: functional
# [11] = Toxicity in BALB/c mouse assessed as histopathological changes in spleen at 50 to 100 mg/kg, iv measured after 7 days by H and E staining based assay; assay type: organism-based; details: in vivo, 168 h, dose 50-100 mg/kg, time 7 day
# [12] = Toxicity in nude mouse xenografted with human A-375 cells assessed as body weight loss at 10 to 40 mg/kg, ip measured once every two days for 14 days; assay type: organism-based; details: in vivo, 336 h, dose 10-40 mg/kg, time 14 day
# [13] = system: MCF7; experiment: Antiproliferative activity against human MCF7 cells assessed as inhibition of cell viability incubated for 72 hrs by MTT assay; assay type: functional, cell-based; details: MCF7, 72 h
# [14] = system: A-375; experiment: Induction of mitochondrial damage in human A-375 cells assessed as decrease in oxygen consumption rate at 5 uM measured after 4 hrs; assay type: functional, cell-based
# [15] = system: A-375; experiment: Inhibition of glycolysis in human A-375 cells assessed as reduction in extracellular acidification rate at 0.25 to 1 uM measured after 4 hrs; assay type: functional, cell-based; details: dose 0.25-1 µM
# [16] = Drug uptake in human A-375 cells mitochondria assessed as fold increase at 10 uM measured after 4 hrs relative to PBA; assay type: ADME; details: a-375, 4 h
# [17] = system: A-375; experiment: Inhibition of cell migration in human A-375 cells incubated for 24 hrs by wound healing assay; assay type: functional, cell-based; details: dose 1.5-2.5 µM, DDE = dose-dependent effect
# [18] = system: A-375; experiment: Antitumor activity against human A-375 cells xenografted in nude mouse assessed as tumor inhibition ratio at 40 mg/kg, ip measured once every two days for 14 days; assay type: functional; details: A-375, 336 h, time 14 day, read-out: TGI
# [19] = system: MCF7; experiment: Induction of mitochondrial membrane hyperpolarization in human MCF7 cells assessed as JC-1 level at 2.5 to 10 uM incubated for 4 hrs by JC-1 staining based flow cytometry analysis relative to control; assay type: functional; details: dose 2.5-10 µM
# [20] = Drug uptake in human A-375 cells measured at 10 mins by RP-HPLC-UV analysis; assay type: ADME, cell-based; details: a-375, 10 min
# [21] = system: A-375; experiment: Induction of cell cycle arrest in human A-375 cells assessed as accumulation at G2 phase at 7.5 uM incubated for 24 hrs by PI staining based flow cytometry analysis (reference value: 7.92 %); assay type: functional
# [22] = Toxicity in BALB/c mouse assessed as animal death at 50 to 100 mg/kg, […] measured after 7 days; assay type: organism-based; details: in vivo, 168 h, dose 50-100 mg/kg, time 7 day
# [23] = system: A549; experiment: Induction of mitochondrial membrane hyperpolarization in human A549 cells assessed as JC-1 level at 2.5 to 10 uM incubated for 4 hrs by JC-1 staining based flow cytometry analysis relative to control; assay type: functional; details: dose 2.5-10 µM
# [24] = system: A-375; experiment: Cytotoxicity against human A-375 cells assessed as reduction in cell vaibility measured at 72 hrs in presence of BNPP by MTT assay; assay type: functional, cell-based; details: A-375, 72 h
# [25] = system: A-375; experiment: Antitumor activity against human A-375 cells xenografted in nude mouse assessed as shrinkage of tumor tissue at 10 to 40 mg/kg, ip measured once every two days for 14 days; assay type: functional, organism-based; details: dose 10-40 mg/kg, time 14.0 day
# [26] = system: A-375; experiment: Induction of mitochondrial membrane depolarization in human A-375 cells assessed as reduction in red fluorescence intensity incubated for 4 hrs by TMRM staining based fluorescence microscopy analysis; assay type: functional, cell-based; details: dose 2.5-10 µM, DDE = dose-dependent effect
# [27] = Toxicity in BALB/c mouse assessed as histopathological changes in lung at 50 to 100 mg/kg, iv measured after 7 days by H and E staining based assay; assay type: organism-based; details: in vivo, 168 h, dose 50-100 mg/kg, time 7 day
# [28] = system: HEK-293T; experiment: Induction of mitochondrial membrane hyperpolarization in HEK293T cells assessed as JC-1 level at 2.5 to 10 uM incubated for 4 hrs by JC-1 staining based flow cytometry analysis relative to control; assay type: functional, Homo sapiens; details: dose 2.5-10 µM
# [29] = system: A-375; experiment: Induction of mitochondrial membrane depolarization in human A-375 cells assessed as increase in JC-1 monomer at 10 uM incubated for 4 hrs by JC-1 staining based flow cytometry analysis; assay type: functional, cell-based
# [30] = system: A-375; experiment: Induction of cell cycle arrest in human A-375 cells assessed as accumulation at G2 phase at 2.5 uM incubated for 24 hrs by PI staining based flow cytometry analysis (reference value: 7.92 %); assay type: functional
# [31] = Apparent permeability across basolateral to apical side in human Caco-2 cells at 2 uM measured after 2 hrs by LC-MS/MS analysis; assay type: ADME, cell-based
# [32] = system: A549; experiment: Antiproliferative activity against human A549 cells assessed as inhibition of cell viability incubated for 72 hrs by MTT assay; assay type: functional, cell-based; details: A549, 72 h
# [33] = target: Pyruvate dehydrogenase kinase (Homo sapiens) (UniProt Q15119+Q15120+Q16654+Q15118); experiment: Inhibition of PDK in human A-375 cells assessed as reduction in PDH phosphorylation at ser293 residue at 5 to 20 uM after 24 to 48 hrs; assay type: cell-based; details: dose 5-20 µM, time 24-48 hrs
# [34] = system: A-375; experiment: Induction of cell cycle arrest in human A-375 cells assessed as accumulation at G1 phase at 5 uM incubated for 24 hrs by PI staining based flow cytometry analysis (reference value: 68.07 %); assay type: functional
# [35] = system: A-375; experiment: Induction of mitochondrial membrane depolarization in human A-375 cells assessed as increase in JC-1 monomer incubated for 4 hrs by JC-1 staining based flow cytometry analysis; assay type: functional, cell-based; details: dose 2.5-10 µM, DDE = dose-dependent effect
compound,measurement,setting,value
O=C(CCCCCCCCC[P+](c1ccc(C(F)(F)F)cc1)(c1ccc(C(F)(F)F)cc1)c1ccc(C(F)(F)F)cc1)NC(COC(=O)CCCc1ccccc1)(COC(=O)CCCc1ccccc1)COC(=O)CCCc1ccccc1.[Br-],Activity,[1],Non-Toxic
same,Activity,[2],2.22%
same,Activity,[3],Active
same,inhibition,[4],Dde
same,Activity,[5],80.37%
same,Activity,[6],16.08%
same,Stability,[7],Unstable
same,half-life,[8],4.28 h
same,Activity,[9],Active
same,Activity,[10],6%
same,Activity,[11],Non-Toxic
same,Activity,[12],Non-Toxic
same,IC50,[13],6.02 µM
same,Activity,[14],Active
same,inhibition,[15],Active
same,Drug uptake,[16],Active
same,inhibition,[17],Dde
same,inhibition in vivo at 40 mg/kg,[18],76%
same,Activity,[19],3.6%
same,Drug uptake,[20],Active
same,Activity,[21],7.88%
same,Activity,[22],Non-Toxic
same,Activity,[23],5.01%
same,IC50,[24],14.1 µM
same,Activity,[25],Active
same,Activity,[26],Dde
same,Activity,[27],Non-Toxic
same,Activity,[28],18.91%
same,Activity,[29],Active
same,Activity,[30],8.58%
same,"Papp B→A at 2 h, 2 µM",[31],16.8 ×10⁻⁶ cm/s
same,IC50,[32],4.72 µM
same,inhibition,[33],Active
same,Activity,[34],75.69%
same,Activity,[35],Dde
